Reference: ChEMBL document CHEMBL1143427, “Interactions of ceftobiprole with beta-lactamases from molecular classes A to D” (Antimicrob Agents Chemother, 2007)

Assays:
[1] = biological target: T1, Beta-lactamase (Klebsiella oxytoca) (UniProt Q8RT60); assay: Activity of Klebsiella oxytoca beta-lactamase K1 assessed as drug hydrolysis by spectrophotometry relative to cephaloridine; design: scale not given: the % may be the effect or the level left
T1 sequence (whole entry): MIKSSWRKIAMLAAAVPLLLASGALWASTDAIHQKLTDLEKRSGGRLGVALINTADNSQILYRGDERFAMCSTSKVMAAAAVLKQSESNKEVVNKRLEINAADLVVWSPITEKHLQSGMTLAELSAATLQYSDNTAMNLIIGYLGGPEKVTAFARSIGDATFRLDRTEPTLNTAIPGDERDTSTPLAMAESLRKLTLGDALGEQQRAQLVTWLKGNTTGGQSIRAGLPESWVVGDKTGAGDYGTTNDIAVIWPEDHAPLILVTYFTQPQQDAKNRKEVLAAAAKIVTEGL

[2] = biological target: Beta-lactamase (Pseudomonas aeruginosa (strain ATCC 15692 / PAO1 / 1C / PRS 101 / LMG12228)) (UniProt P24735); assay: Activity of Pseudomonas aeruginosa AmpC assessed as drug hydrolysis by spectrophotometry relative to cephaloridine; design: scale not given: the % may be the effect or the level left
[3] = biological target: T2, Beta-lactamase (Providencia stuartii) (UniProt O69773); assay: Activity of Providencia stuartii AmpC assessed as drug hydrolysis by spectrophotometry relative to cephaloridine; design: scale not given: the % may be the effect or the level left
T2 sequence (whole entry): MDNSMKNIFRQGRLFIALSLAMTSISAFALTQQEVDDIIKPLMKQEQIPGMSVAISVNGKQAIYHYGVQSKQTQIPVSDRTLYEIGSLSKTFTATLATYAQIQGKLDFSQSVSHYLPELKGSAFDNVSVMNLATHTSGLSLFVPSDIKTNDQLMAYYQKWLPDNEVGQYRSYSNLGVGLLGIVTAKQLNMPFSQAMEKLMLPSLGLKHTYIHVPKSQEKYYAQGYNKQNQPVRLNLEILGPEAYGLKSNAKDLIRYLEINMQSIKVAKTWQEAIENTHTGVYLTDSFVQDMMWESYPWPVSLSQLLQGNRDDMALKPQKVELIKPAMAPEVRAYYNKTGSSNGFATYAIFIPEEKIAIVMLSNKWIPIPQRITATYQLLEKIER

[4] = biological target: Beta-lactamase (Morganella morganii) (UniProt P94958); assay: Ratio of Kcat to Km of Morganella morganii AmpC assessed as drug hydrolysis by spectrophotometry relative to cephaloridine; design: scale not given: the % may be the effect or the level left
[5] = biological target: T2, Beta-lactamase (Providencia stuartii); assay: Ratio of Kcat to Km of Providencia stuartii AmpC assessed as drug hydrolysis by spectrophotometry relative to cephaloridine; design: scale not given: the % may be the effect or the level left
[6] = biological target: Beta-lactamase (Staphylococcus aureus) (UniProt P00807); assay: Activity of Staphylococcus aureus betalactamase PC1 assessed as drug hydrolysis by spectrophotometry relative to cephaloridine; design: scale not given: the % may be the effect or the level left
[7] = biological target: Beta-lactamase (Pseudomonas aeruginosa (strain ATCC 15692 / PAO1 / 1C / PRS 101 / LMG12228)) (UniProt P24735); assay: Ratio of Kcat to Km of Pseudomonas aeruginosa AmpC assessed as drug hydrolysis by spectrophotometry relative to cephaloridine; design: scale not given: the % may be the effect or the level left
[8] = biological target: Beta-lactamase (Serratia marcescens) (UniProt P18539); assay: Ratio of Kcat to Km of Serratia marcescens AmpC assessed as drug hydrolysis by spectrophotometry relative to cephaloridine; design: scale not given: the % may be the effect or the level left
[9] = biological target: Beta-lactamase (Pseudomonas aeruginosa (strain ATCC 15692 / PAO1 / 1C / PRS 101 / LMG12228)) (UniProt P24735); assay: Ratio of Kcat to Km of Pseudomonas aeruginosa 4352 AmpC assessed as drug hydrolysis by spectrophotometry relative to cephaloridine; design: scale not given: the % may be the effect or the level left
[10] = biological target: Beta-lactamase (Morganella morganii) (UniProt P94958); assay: Activity of Morganella morganii AmpC assessed as drug hydrolysis by spectrophotometry relative to cephaloridine; design: scale not given: the % may be the effect or the level left
[11] = biological target: Beta-lactamase (Serratia marcescens) (UniProt P18539); assay: Activity of Serratia marcescens AmpC assessed as drug hydrolysis by spectrophotometry relative to cephaloridine; design: scale not given: the % may be the effect or the level left
[12] = biological target: Beta-lactamase (Pseudomonas aeruginosa (strain ATCC 15692 / PAO1 / 1C / PRS 101 / LMG12228)) (UniProt P24735); assay: Activity of Pseudomonas aeruginosa MK-1184 AmpC assessed as drug hydrolysis by spectrophotometry relative to cephaloridine; design: scale not given: the % may be the effect or the level left
[13] = biological target: Beta-lactamase VIM-2 (Pseudomonas aeruginosa) (UniProt Q9K2N0); assay: Ratio of Kcat to Km of Pseudomonas aeruginosa VIM2 assessed as drug hydrolysis by spectrophotometry relative to cephaloridine; design: scale not given: the % may be the effect or the level left
[14] = biological target: Beta-lactamase (Pseudomonas aeruginosa (strain ATCC 15692 / PAO1 / 1C / PRS 101 / LMG12228)) (UniProt P24735); assay: Ratio of Kcat to Km of Pseudomonas aeruginosa 18SH AmpC assessed as drug hydrolysis by spectrophotometry relative to cephaloridine; design: scale not given: the % may be the effect or the level left
[15] = biological target: T3, Beta-lactamase SHV-1 (Klebsiella pneumoniae) (UniProt P0AD64); assay: Activity of Klebsiella pneumoniae SHV1 assessed as drug hydrolysis by spectrophotometry relative to cephaloridine; design: scale not given: the % may be the effect or the level left
T3 sequence (whole entry): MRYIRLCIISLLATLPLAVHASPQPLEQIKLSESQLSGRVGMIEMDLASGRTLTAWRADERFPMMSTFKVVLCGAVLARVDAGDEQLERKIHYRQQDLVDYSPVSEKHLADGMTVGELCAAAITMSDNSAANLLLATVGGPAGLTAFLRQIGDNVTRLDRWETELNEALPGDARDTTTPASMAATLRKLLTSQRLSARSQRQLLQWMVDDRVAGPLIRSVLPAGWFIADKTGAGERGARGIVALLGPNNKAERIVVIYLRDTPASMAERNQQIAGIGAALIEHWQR

[16] = biological target: Beta-lactamase VIM-2 (Pseudomonas aeruginosa) (UniProt Q9K2N0); assay: Activity of Pseudomonas aeruginosa VIM2 assessed as drug hydrolysis by spectrophotometry relative to cephaloridine; design: scale not given: the % may be the effect or the level left
[17] = biological target: Beta-lactamase (Pseudomonas aeruginosa (strain ATCC 15692 / PAO1 / 1C / PRS 101 / LMG12228)) (UniProt P24735); assay: Ratio of Kcat to Km of Pseudomonas aeruginosa MK-1184 AmpC assessed as drug hydrolysis by spectrophotometry relative to cephaloridine; design: scale not given: the % may be the effect or the level left
[18] = biological target: Beta-lactamase (Pseudomonas aeruginosa (strain ATCC 15692 / PAO1 / 1C / PRS 101 / LMG12228)) (UniProt P24735); assay: Activity of Pseudomonas aeruginosa 4352 AmpC assessed as drug hydrolysis by spectrophotometry relative to cephaloridine; design: scale not given: the % may be the effect or the level left
[19] = biological target: Metallo beta-lactamase (Pseudomonas aeruginosa) (UniProt Q6TUJ4); assay: Ratio of Kcat to Km of Pseudomonas aeruginosa IMP1 assessed as drug hydrolysis by spectrophotometry relative to cephaloridine; design: scale not given: the % may be the effect or the level left
[20] = biological target: Beta-lactamase (Staphylococcus aureus) (UniProt P00807); assay: Ratio of Kcat to Km of Staphylococcus aureus betalactamase PC1 assessed as drug hydrolysis by spectrophotometry relative to cephaloridine; design: scale not given: the % may be the effect or the level left
[21] = test system: Klebsiella pneumoniae; assay: Ratio of Kcat to Km of Klebsiella pneumoniae TEM26 assessed as drug hydrolysis by spectrophotometry
[22] = biological target: Beta-lactamase TEM (Escherichia coli) (UniProt P62593); assay: Activity of Escherichia coli TEM1 assessed as drug hydrolysis by spectrophotometry relative to cephaloridine; design: scale not given: the % may be the effect or the level left
[23] = test system: Klebsiella pneumoniae; assay: Activity of Klebsiella pneumoniae TEM26 assessed as drug hydrolysis by spectrophotometry relative to cephaloridine; design: scale not given: the % may be the effect or the level left
[24] = biological target: Beta-lactamase CTX-M (Escherichia coli) (UniProt Q9EXV5); assay: Activity of Escherichia coli CTX-M-15 assessed as drug hydrolysis by spectrophotometry relative to cephaloridine; design: scale not given: the % may be the effect or the level left
[25] = biological target: T1, Beta-lactamase (Klebsiella oxytoca); assay: Ratio of Kcat to Km of Klebsiella oxytoca beta-lactamase K1 assessed as drug hydrolysis by spectrophotometry relative to cephaloridine; design: scale not given: the % may be the effect or the level left
[26] = biological target: T4, Carbapenem-hydrolyzing beta-lactamase SME-3 (Serratia marcescens) (UniProt Q6PRG8); assay: Activity of Serratia marcescens SME3 assessed as drug hydrolysis by spectrophotometry relative to cephaloridine; design: scale not given: the % may be the effect or the level left
T4 sequence (whole entry): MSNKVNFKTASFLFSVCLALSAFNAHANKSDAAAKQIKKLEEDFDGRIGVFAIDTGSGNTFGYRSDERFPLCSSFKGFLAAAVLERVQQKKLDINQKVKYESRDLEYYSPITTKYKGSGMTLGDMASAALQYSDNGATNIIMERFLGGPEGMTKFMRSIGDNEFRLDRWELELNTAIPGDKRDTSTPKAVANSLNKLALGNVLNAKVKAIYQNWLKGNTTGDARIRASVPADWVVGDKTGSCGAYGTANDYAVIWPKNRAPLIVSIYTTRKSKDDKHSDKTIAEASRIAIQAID

[27] = biological target: Beta-lactamase CTX-M (Escherichia coli) (UniProt Q9EXV5); assay: Ratio of Kcat to Km of Escherichia coli CTX-M-15 assessed as drug hydrolysis by spectrophotometry relative to cephaloridine; design: scale not given: the % may be the effect or the level left
[28] = biological target: T3, Beta-lactamase SHV-1 (Klebsiella pneumoniae); assay: Ratio of Kcat to Km of Klebsiella pneumoniae SHV1 assessed as drug hydrolysis by spectrophotometry relative to cephaloridine; design: scale not given: the % may be the effect or the level left
[29] = test system: Klebsiella pneumoniae; assay: Activity of Klebsiella pneumoniae TEM26 assessed as drug hydrolysis by spectrophotometry
[30] = biological target: T4, Carbapenem-hydrolyzing beta-lactamase SME-3 (Serratia marcescens); assay: Ratio of Kcat to Km of Serratia marcescens SME3 assessed as drug hydrolysis by spectrophotometry relative to cephaloridine; design: scale not given: the % may be the effect or the level left
[31] = biological target: Beta-lactamase (Pseudomonas aeruginosa (strain ATCC 15692 / PAO1 / 1C / PRS 101 / LMG12228)) (UniProt P24735); assay: Activity of Pseudomonas aeruginosa 18SH AmpC assessed as drug hydrolysis by spectrophotometry relative to cephaloridine; design: scale not given: the % may be the effect or the level left
[32] = biological target: Beta-lactamase TEM (Escherichia coli) (UniProt P62593); assay: Ratio of Kcat to Km of Escherichia coli TEM1 assessed as drug hydrolysis by spectrophotometry relative to cephaloridine; design: scale not given: the % may be the effect or the level left
[33] = test system: Klebsiella pneumoniae; assay: Ratio of Kcat to Km of Klebsiella pneumoniae TEM26 assessed as drug hydrolysis by spectrophotometry relative to cephaloridine; design: scale not given: the % may be the effect or the level left
[34] = test system: CC(C)(O/N=C(\C(=O)N[C@@H]1C(=O)N2C(C(=O)[O-])=C(C[n+]3ccccc3)CS[C@H]12)c1csc(N)n1)C(=O)O; assay: (§1) Ratio of Kcat to Km of Pseudomonas aeruginosa VIM2 assessed as drug hydrolysis by spectrophotometry
[35] = test system: O=C(Cc1cccs1)N[C@@H]1C(=O)N2C(C(=O)[O-])=C(C[n+]3ccccc3)CS[C@H]12; assay: as §1
[36] = test system: CC(C)(O/N=C(\C(=O)N[C@@H]1C(=O)N2C(C(=O)[O-])=C(C[n+]3ccccc3)CS[C@H]12)c1csc(N)n1)C(=O)O; assay: (§2) Activity of Pseudomonas aeruginosa VIM2 assessed as drug hydrolysis by spectrophotometry
[37] = test system: Nc1nc(/C(=N/O)C(=O)N[C@@H]2C(=O)N3C(C(=O)O)=C(/C=C4\CCN([C@@H]5CCNC5)C4=O)CS[C@H]23)ns1; assay: as §2
[38] = test system: O=C(Cc1cccs1)N[C@@H]1C(=O)N2C(C(=O)[O-])=C(C[n+]3ccccc3)CS[C@H]12; assay: as §2

Sequence of Beta-lactamase (Pseudomonas aeruginosa (strain ATCC 15692 / PAO1 / 1C / PRS 101 / LMG12228)) (P24735 27-397 limits assumed): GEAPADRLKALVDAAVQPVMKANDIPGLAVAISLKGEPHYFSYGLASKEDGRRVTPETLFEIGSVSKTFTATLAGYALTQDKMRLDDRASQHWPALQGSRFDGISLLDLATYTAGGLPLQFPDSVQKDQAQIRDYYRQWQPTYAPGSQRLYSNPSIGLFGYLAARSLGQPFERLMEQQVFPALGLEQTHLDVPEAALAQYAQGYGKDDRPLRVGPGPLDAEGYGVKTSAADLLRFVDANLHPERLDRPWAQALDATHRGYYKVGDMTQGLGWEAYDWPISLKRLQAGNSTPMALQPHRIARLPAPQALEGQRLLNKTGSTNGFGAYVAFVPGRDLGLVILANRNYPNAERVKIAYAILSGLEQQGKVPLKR
Sequence of Beta-lactamase (Staphylococcus aureus) (P00807 whole entry): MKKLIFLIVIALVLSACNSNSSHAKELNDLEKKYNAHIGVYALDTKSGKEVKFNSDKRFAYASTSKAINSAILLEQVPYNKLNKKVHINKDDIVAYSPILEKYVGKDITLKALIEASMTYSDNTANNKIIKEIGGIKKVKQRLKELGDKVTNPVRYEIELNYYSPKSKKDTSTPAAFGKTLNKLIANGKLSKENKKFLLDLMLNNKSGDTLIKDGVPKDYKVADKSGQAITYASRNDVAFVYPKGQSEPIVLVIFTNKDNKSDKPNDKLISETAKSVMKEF
Sequence of Beta-lactamase (Serratia marcescens) (P18539 whole entry): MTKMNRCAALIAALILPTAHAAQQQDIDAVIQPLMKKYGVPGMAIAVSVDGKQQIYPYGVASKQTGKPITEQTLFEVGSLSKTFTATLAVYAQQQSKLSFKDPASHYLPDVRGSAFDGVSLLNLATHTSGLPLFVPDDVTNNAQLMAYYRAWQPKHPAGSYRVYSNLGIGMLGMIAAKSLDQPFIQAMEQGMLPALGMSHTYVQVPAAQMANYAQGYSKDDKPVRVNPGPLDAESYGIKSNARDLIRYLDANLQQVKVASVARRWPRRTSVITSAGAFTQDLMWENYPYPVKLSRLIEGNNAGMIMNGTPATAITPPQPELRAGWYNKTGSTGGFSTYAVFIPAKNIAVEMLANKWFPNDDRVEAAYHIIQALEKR
Sequence of Beta-lactamase TEM (Escherichia coli) (P62593 whole entry): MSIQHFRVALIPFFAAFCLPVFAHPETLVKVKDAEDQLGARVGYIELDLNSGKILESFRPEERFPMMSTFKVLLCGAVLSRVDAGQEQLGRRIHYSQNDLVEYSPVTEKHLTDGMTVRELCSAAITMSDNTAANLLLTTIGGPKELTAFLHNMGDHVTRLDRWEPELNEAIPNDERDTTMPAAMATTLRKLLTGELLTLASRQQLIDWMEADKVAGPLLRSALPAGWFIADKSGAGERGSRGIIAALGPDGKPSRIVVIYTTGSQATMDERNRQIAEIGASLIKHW
Sequence of Metallo beta-lactamase (Pseudomonas aeruginosa) (Q6TUJ4 as listed by the source): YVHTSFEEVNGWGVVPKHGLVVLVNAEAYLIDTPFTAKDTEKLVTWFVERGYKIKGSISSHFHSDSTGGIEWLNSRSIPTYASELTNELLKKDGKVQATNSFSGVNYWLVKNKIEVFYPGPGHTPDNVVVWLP

## CO/N=C(\C(=O)N[C@@H]1C(=O)N2C(C(=O)[O-])=C(C[N+]3(C)CCCC3)CS[C@H]12)c1csc(N)n1
[1]
  Activity: 8.5%
[2]
  Activity: 19%
[3]
  Activity: 0.57%
[4]
  Activity: < 0.018%
[5]
  Activity: 0.66%
[6]
  Activity: 1.4%
[7]
  Activity: 1.6%
[8]
  Activity: < 0.022%
[9]
  Activity: 0.011%
[10]
  Activity: < 0.047%
[11]
  Activity: < 0.028%
[12]
  Activity: 1.5%
[13]
  Activity: 4.1%
[14]
  Activity: 0.5%
[15]
  Activity: 0.42%
[16]
  Activity: 0.32%
[17]
  Activity: 0.78%
[18]
  Activity: < 0.012%
[19]
  Activity: 200%
[20]
  Activity: 2.5%
[21]
  kcat/Km: 310000 M⁻¹ s⁻¹
[22]
  Activity: 0.45%
[23]
  Activity: 54%
[24]
  Activity: 24%
[25]
  Activity: 0.84%
[26]
  Activity: 0.13%
[27]
  Activity: 5.1%
[28]
  Activity: 0.81%
[29]
  Km: 65 µM
  kcat: 20 s⁻¹
[30]
  Activity: 0.18%
[31]
  Activity: < 0.1%
[32]
  Activity: 0.38%
[33]
  Activity: 55%

## Beta-lactamase VIM-2 (Pseudomonas aeruginosa) (from UniProt Q9K2N0)
[34]
  kcat/Km: 1500 M⁻¹ s⁻¹
[35]
  kcat/Km: 86000 M⁻¹ s⁻¹
[36]
  Km: 150 µM
  kcat: 0.23 s⁻¹
[37]
  Km: 46 µM
  kcat: 15 s⁻¹
[38]
  Km: 1400 µM
  kcat: 120 s⁻¹
